Laboratory results reported in patent publication US20050118226A1, “Methods for treating ACAT-related diseases” (priority 2003, published 2005).
“Also recorded” adds a separate entry of the source.

What was measured:
[1] = tested on: amyloid plaques; assay: Brain plaque load in hAPP mice (thioflavin S and 6E10 Aβ staining); type: in vivo, mouse
Experimental: For histomorphological analyses, 8 to 15 histological sections (10 μm) were prepared from one hemisphere of 12 animals (6 placebo, 6 CP-113,818; 3 male, 3 female per group). Number and surface area of amyloid plaques were evaluated in both cortex and hippocampus. 6E10 (Signet; 1:5000; monoclonal) as primary antibody, and Cy™3 fluorescent goat anti-mouse IgG as secondary antibody (Jackson Immuno Research) were used for Aβ staining. Sections of the same brains were also used for synaptophysin staining (Chemicon; 1:5000; monoclonal). Synaptophysin immunoreactive spots were counted by light microscopy in the hippocampal CA1 region. The estimation of immunohistochemical reactions was done by computer-assisted quantification (IMAGE PRO PLUS, Media Cybernetics).
Brain plaque load was evaluated by thioflavin S and immunohistochemical stainings (FIG. 3). Thioflavin S-positive plaques were barely detectable in the cortex of hAPP mice at 6.5 months of age and absent in CP-113,818-treated animals (FIG. 2A). […] Individual differences in amyloid load reflected the well-known variability in Aβ accumulation that has been previously observed in transgenic mice, specifically at early stages of pathology (Johnson-Wood et al., 1997; Kawarabayashi et al., 2001). Amyloid load in the cortex of female animals was two-fold higher than in males, in agreement with previous studies in other mouse models of AD (Callahan et al., 2001; Lee et al., 2002; Wang et al., 2003). The hippocampus, slower than the cortex in developing amyloid pathology in hAPP mice, contained significant numbers of Aβ deposits only in female, but not in male, animals (FIG. 3B and FIG. 4). […] Importantly, when the two genders were considered separately, plaque numbers were reduced to an equal extent in females and males, by 89%, p<0.00002, and 88%, p<0.0002, respectively (FIG. 3B). […] In females the decrease was from 0.45 to 0.04 percent plaque load (p<0.00002), while in males it was from 0.10 to 0.02 (p<0.00013; FIG. 4B). As mentioned above, amyloid load in the hippocampus of male animals was too low at this age for reliable assessment of changes caused by CP-113,818.

[2] = tested on: hAPP mice and non-transgenic littermates; assay: Morris water maze spatial learning and memory test; type: in vivo, mouse
Experimental: 53 days after the treatment, mice were trained in the Morris water maze (MWM) spatial navigation task in which a mouse swims to find a hidden platform, using visual cues. The task is based on the principle that rodents are highly motivated to escape from a water environment by the quickest, most direct route. This task is carried out in a circular pool (1 meter diameter) filled with water (22±1° C.) and virtually divided into four quadrants. A platform is placed in the southwest quadrant 1 cm beneath the surface of the water. The computer randomly changes the starting positions of an animal. On four consecutive days mice attend three trials per day (each lasting for a maximum of 60 seconds). Escape latency (time to find the hidden platform), and length of swimming path were measured. Significant differences of the behavioral results were calculated with the Mann Whitney U-test.
To analyze the effect of CP-113,818 treatment on cognitive function of hAPP mice, we performed Morris water maze spatial learning and memory tests on the animals. Since hAPP mice develop cognitive deficits starting at 6 months of age, the 6.5 month-old animals in our study were only expected to show slight deterioration due to Aβ accumulation, when compared to non-transgenic littermates. […] Clear impairment of cognitive function due to Aβ accumulation was only observed in female transgenic mice. […] This could have been due to a ceiling effect owing to maximum swimming speed. Compared to placebo, the improvement between day 1 and day 3 due to CP-113,818 treatment was significant (p<0.033). […] Although testing of more mice at an older age will be needed to further assess the effect of decreased amyloid pathology on spatial learning and memory, improved performance in a Morris water maze test correlated well with the highly significant decrease of overall plaque load and Aβ in CP-113,818-treated female animals.

CCCCCCCC[C@H](SCCCCCC)C(=O)Nc1c(SC)cc(C)nc1SC [CP-113,818]
reduction of cortical plaque number, females ([1]; female hAPP mice, cortex, 6E10 staining, 57 days): 89%
cortical plaque numbers / Aβ staining at beginning versus end of treatment ([1]; female hAPP mice, cortex, day 0 without vs day 57 with treatment): remarkably similar
percent plaque load in cortex after treatment, females ([1]; female hAPP mice, cortex, placebo 0.45): 0.04%
decrease of plaque number in the hippocampus of female mice ([1]; female hAPP mice, hippocampus, 57 days): 99%
percent plaque load in hippocampus after treatment, females ([1]; female hAPP mice, hippocampus, placebo 0.295): 0.09%
thioflavin S-positive plaques in the cortex ([1]; hAPP mice at 6.5 months of age): absent
reduction of cortical plaque number ([1]; hAPP mice, all animals, cortex, 6E10 staining, 57 days): 88%
decrease of plaque burden (percent of cortex covered by plaques) ([1]; hAPP mice, all animals, cortex, 57 days): 90%
reduction of cortical plaque number, males ([1]; male hAPP mice, cortex, 6E10 staining, 57 days): 88%
percent plaque load in cortex after treatment, males ([1]; male hAPP mice, cortex, placebo 0.10): 0.02%
spatial learning of all hAPP mice taken together ([2]; all hAPP mice regardless of gender): trend toward acquiring the task quickly
spatial learning performance of female hAPP mice (swimming path, escape latency) ([2]; female hAPP mice, days 54-57 of treatment): reversed the observed impairment; also recorded: improved this performance
spatial learning performance of male hAPP mice ([2]; male hAPP mice): did not affect the performance
swimming path of male non-transgenic animals ([2]; male non-transgenic mice, day four, not escape latency): performed better than the placebo-treated cohort; also recorded: slightly improved
spatial performance of non-transgenic female mice ([2]; non-transgenic female mice): did not affect spatial performance
